{"source": "patent US11220548B2", "about": "“Treatment of C1013G/CXCR4-associated Waldenstrom's macroglobulinemia with an anti-CXCR4 antibody” (BRISTOL-MYERS SQUIBB COMPANY, priority 2013, dated 2022)", "key": {"[1]": {"test_system": "WM cells", "conditions": "cited from earlier work"}, "[2]": {"test_system": "WM cells", "conditions": "cited from earlier work", "remark": "listed apart in the source"}, "[3]": {"test_system": "C1013G/CXCR4-WM cell lines (BCWM1; MWCL1)", "assay": "Cytotoxicity (MTT) of anti-WM agents, 48 h exposure", "assay_type": "cell-based, human", "conditions": "vs control vector-infected cells", "description": "FIGS. 13A and 13B show GSEA enrichment plots of multiple drug resistance and response to drug signature genes in C1013G/CXCR4-mutated cells and control vector-infected cells (control cells), respectively. The plotted curves show the enrichment score and reflect the degree to which each gene (vertical lines) is represented at the top or bottom of the ranked gene list. The heat map indicates the relative abundance (left to right) of the genes specifically enriched in the mutated cells as compared with the control cells. Gene sets were considered enriched with a FDR always <0.25. Normalized enrichments score (NES) and FDR are shown per each gene set analyzed. FIGS. 13C-13G show the effects on C1013G/CXCR4-WM cell lines (BCWM1; MWCL1) or control vector-infected cells (control) exposed to everolimus, ibrutinib, idelalisib, bortezomib, and carfilzomib for 48 h.\nEverolimus, idelalisib, ibrutinib, bortezomib, and carfilzomib were purchased from Selleck Chemicals (Houston, Tex.). Drugs were dissolved in dimethylsulfoxide and subsequently diluted in cell culture medium (10% fetal bovine serum) immediately before use."}, "[4]": {"test_system": "BCWM.1-mCherry+ cells", "assay": "In vivo homing and tumor progression of wild-type WM cells", "set-up": "species or system SCID/Bg mice", "conditions": "human IgM ELISA at end of study; P<0.05", "experimental": "Serum was collected at the end of the study. […] Cell toxicity was performed by MTT. […] Bars indicate standard deviation.\nHuman serum IgM levels were determined by using a human IgM ELISA assay (ZeptoMetrix, Buffalo, N.Y.), according to the manufacturer's protocol.\nSCID/Bg mice (n=5/group) were injected with BCWM.1 infected with either precision LentiORF/CXCR4/GFP (CXCR4^+)- or empty vector probe/RFP (control)-infected BCWM.1 cells. After three weeks, mice were euthanized and organs harvested. Hematoxylin-eosin staining, immunohistochemistry for human-CD20 and -CXCR4 were performed on explanted organs. Independent experiments were conducted to evaluate differences in survival (SCID/Bg mice, n=7/group). Similar studies were conducted using […]/CXCR4-mutated cells and control vector-infected cells (control cells). In vivo homing studies were performed using BCWM.1-mCherry^+ cells: cells were injected intravenously into […] mice and treated with either BMS-936564 or control antibody (10 mg/kg, intraperitoneally; 3-4 times per week for 3 weeks). The ability of BMS-936564 to modulate WM homing to BM, spleen and lymph nodes was evaluated ex vivo at the third week on explanted tissues, by using a fluorescence microscope (Nikon Eclipse 80i, Melville, N.Y.) (Roccaro et al., 2013).\nThe anti-WM activity of BMS-936564 was also tested in vivo using wild-type WM cells. BCWM.1-mCherry^+ cells were injected intravenously into SCID/Bg mice and treated mice with either BMS-936564 or control antibody.\nAs CXCR4 inhibition is thought to induce stem cell and tumor cell mobilization, it was hypothesized that BMS-936564 may also induce mobilization of WM cells leading to increased chemosensitivity to anti-WM agents. Accordingly, the effect of BMS-936564 in modulating tumor progression and WM cell dissemination to distant BM niches in vivo was evaluated as monotherapy or in combination with bortezomib."}}, "data": [{"smiles": "c1cc(CN2CCCNCCNCCCNCC2)ccc1CN1CCCNCCNCCCNCC1", "note": "[AMD3100, plerixafor]", "values": [{"measurement": "migration of WM cells", "setting": "[1]", "result": "significantly inhibit"}, {"measurement": "adhesion of WM cells to fibronectin, stromal cells, and endothelial cells", "setting": "[2]", "result": "significantly inhibit"}]}, {"smiles": "CC(C)C[C@H](NC(=O)[C@H](Cc1ccccc1)NC(=O)c1cnccn1)B(O)O", "note": "[bortezomib, reference compound]", "values": [{"measurement": "sensitivity of C1013G/CXCR4-mutated WM cells compared with unmutated control cells", "setting": "[3]", "result": "equally sensitive"}, {"measurement": "serum IgM levels", "setting": "[4]", "result": "significantly reduced"}]}, {"smiles": "CC(C)C[C@H](NC(=O)[C@H](CCc1ccccc1)NC(=O)CN1CCOCC1)C(=O)N[C@@H](Cc1ccccc1)C(=O)N[C@@H](CC(C)C)C(=O)[C@@]1(C)CO1", "note": "[carfilzomib]", "values": [{"measurement": "sensitivity of C1013G/CXCR4-mutated WM cells compared with unmutated control cells", "setting": "[3]", "result": "equally sensitive"}]}, {"smiles": "CO[C@H]1C[C@@H]2CC[C@@H](C)[C@@](O)(O2)C(=O)C(=O)N2CCCC[C@H]2C(=O)O[C@H]([C@H](C)C[C@@H]2CC[C@@H](OCCO)[C@H](OC)C2)CC(=O)[C@H](C)/C=C(\\C)[C@@H](O)[C@@H](OC)C(=O)[C@H](C)C[C@H](C)/C=C/C=C/C=C/1C", "note": "[everolimus]", "values": [{"measurement": "sensitivity of C1013G/CXCR4-mutated WM cells compared with unmutated control cells", "setting": "[3]", "result": "resistance"}]}, {"smiles": "CC[C@H](Nc1ncnc2[nH]cnc12)c1nc2cccc(F)c2c(=O)n1-c1ccccc1", "note": "[idelalisib]", "values": [{"measurement": "sensitivity of C1013G/CXCR4-mutated WM cells compared with unmutated control cells", "setting": "[3]", "result": "resistance"}]}]}
